Reference: patent US20190192699A1, “NUCLEAR IMAGING AND RADIOTHERAPEUTICS AGENTS TARGETING CARBONIC ANHYDRASE IX AND USES THEREOF” (THE JOHNS HOPKINS UNIVERSITY, priority 2016, published 2019)

Key:
CAIX [1] = target: T1, CAIX (Homo sapiens, UniProt Q16790); test: Competitive fluorescence polarization assay for [113/115In]XYIMSR-01; type: binding; set-up: purchased R&D Systems; settings: for IC50: 100 nM CAIX, 80 nM FITC-labeled 8, read-out: IC50, inhibition of fluorescence polarization of FITC labeled 8; for binding affinity to CAIX (in words): competitive fluorescence polarization
Text: (§1) General Procedures. Solvents and chemicals obtained from commercial sources were of analytical grade or better and used without further purification. Fmoc-protected azidolysine, HBTU, and N-α-fmoc-L-aspartic acid α-tert-butyl ester were purchased from Chem Impex International, Inc. (Wooddale, Ill.). Carrier-free [^111In]InCl3 was purchased from MDS Nordion (Ottawa, ON, Canada). DOTA-NHS-ester (1,4,7,10-tetraazacyclododecane-1,4,7,10-tetraacetic acid mono N-hydroxysuccinimide ester) was purchased from Macrocyclics, Inc. (Dallas, Tex.). Indium (III) nitrate, triethylsilane (Et3SiH), N,N-diisopropylethylamine (DIEA), triethylamine (TEA), piperidine, 4,4-bis(4-hydroxyphenyl)valeric acid, copper iodide (CuI), and tris[(1-benzyl-1H-1,2,3-triazol-4-yl)methyl]amine (TBTA) were purchased from Sigma-Aldrich (Saint Louis, Mo.). Pre-loaded O-bis-(aminoethyl)ethylene glycol on trityl resin was purchased from EMD Millipore (Billerica, Mass.). Flash chromatography was performed using MP SiliTech 32-63 D 60 Å silica gel purchased from Bodman (Aston, Pa.). Recombinant human CAIX was purchased from R&D Systems (Minneapolis, Minn.). 1H NMR spectra were recorded on a Bruker Ultrashield 500 MHz spectrometer. Chemical shifts (δ) were reported in ppm downfield by reference to proton resonances resulting from incomplete deuteration of the NMR solvent. ESI mass spectra were obtained on a Bruker Daltonics Esquire 3000 Plus spectrometer (Billerica, Mass.).
Competitive Fluorescence Polarization Assay for [^113/115In]XYIMSR-01. Fluorescence polarization (FP) experiments were performed in 21 μL of the assay buffer (12.5 mM Tris-HCl, pH 7.5, 75 mM NaCl) in black flat bottom 384-well microplates (Corning, Inc., New York, N.Y.) The FP reaction employed 100 nM of purified CAIX (R&D systems, Minneapolis, Minn.) and 80 nM FITC-labeled 8 (Wichert, et al., 2015) within the assay buffer. The FP values were measured as mP units using the Victor3 multi-label plate reader equipped with excitation (485 nm) and emission (535 nm) filters (Perkin Elmer, Waltham, Mass.). 100 nM CAIX was incubated with serially diluted (from 1 μM to 61 fM) concentrations of the three targeting molecules, 2, XYIMSR-01, and [^113/115In]XYIMSR-01 for 30 min at room temperature in 384-well plates. 80 nM 8 was added to each well and the reaction was incubated for 30 min at room temperature followed by FP measurement. Experiments were carried out in triplicate and the concentration resulting in 50% response (IC50) was calculated in GraphPad Prism 5 (GraphPad Software, La Jolla, Calif.) using the sigmoidal dose-response regression function.

CAIX [2] = target: T1, CAIX; test: Competitive fluorescence polarization assay for [Al19F]XYIMSR-04, [63/65Cu]XYIMSR-06 and [175Lu]XYIMSR-01; type: binding; set-up: purchased R&D Systems; settings: 100 nM CAIX, 80 nM FITC-labeled ligand; read-out: IC50, competitive fluorescence polarization (similar method)
Text: as §1
Competitive Fluorescence Polarization Assay for [Al^19F]XYIMSR-04, [^63/65Cu]XYIMSR-06, and [^175Lu]XYIMSR-01. Fluorescence polarization (FP) experiments were performed in 21 μL of the assay buffer (12.5 mM Tris-HCl, pH 7.5, 75 mM NaCl) in transparent flat bottom 384 well Small Volume™ LoBase Microplates (Greiner Bio-One, Frickenhausen Germany). The FP reaction employed 100 nM of purified CAIX (R&D systems, Minneapolis, Minn.) and 80 nM FITC-labeled ligand within the assay buffer. The FP values were measured as mP units using the Safire2™ plate reader (Tecan, Morrisville, N.C.) with excitation at 475 nm and emission at 532 nm emission. 100 nM CAIX was incubated with serially diluted (from 8 μM to 488.2 fM) concentrations of the […] targeting molecules, 2, [Al^19F]XYIMSR-04, [^63/65Cu]XYIMSR-06 and [^175Lu]XYIMSR-01 for 30 min at room temperature in 384 well plates. 80 nM FITC-labeled ligand was added to each well and the reaction was incubated for 30 min at room temperature followed by FP measurements. Experiments were carried out in triplicate and the concentration resulting in 50% response (IC50) was calculated in GraphPad Prism 5 (GraphPad Software, La Jolla, Calif.) using the sigmoidal dose-response regression function.

| SMILES | IC50 (CAIX [1]) [µM] | binding affinity to CAIX (in words) (CAIX [1]) | IC50 (CAIX [2]) [µM] |
| --- | --- | --- | --- |
| CC(CCC(=O)N[C@@H](CC(=O)N[C@@H](CC(=O)N[C@@H](CCCCn1cc(CCCC(=O)Nc2nnc(S(N)(=O)=O)s2)nn1)C(=O)NCCOCCOCCNC(=O)CN1CCN(CC(=O)O)CCN(CC(=O)O)CCN(CC(=O)O)CC1)C(=O)O)C(=O)O)(c1ccc(O)cc1)c1ccc(O)cc1 [XYIMSR-01, 2,2′,2″-(10-((14S,18S,22S)-18,22-dicarboxy-27,27-bis(4-hydroxyphenyl)-2,13,16,20,24-pentaoxo-14-(4-(4-(4-oxo-4-((5-sulfamoyl-1,3,4-thiadiazol-2-yl)amino)butyl)-1H-1,2,3-triazol-1-yl)butyl)-6,9-dioxa-3,12,15,19,23-pentaazaoctacosyl)-1,4,7,10-tetraazacyclododecane-1,4,7-triyl)triacetic acid] | 0.067 | high binding affinity |  |
| CC(CCC(=O)N[C@@H](CC(=O)N[C@@H](CC(=O)N[C@@H](CCCCn1cc(CCCC(=O)Nc2nnc(S(N)(=O)=O)s2)nn1)C(=O)NCCOCCOCCNC(=O)CN1CCN2CCN(CC1)CC(=O)[O][Al]([F])[O]C(=O)C2)C(=O)O)C(=O)O)(c1ccc(O)cc1)c1ccc(O)cc1 [[Al^19F]XYIMSR-04, [Al^19F] 2,2′-(7-((14S,18S,22S)-18,22-dicarboxy-27,27-bis(4-hydroxyphenyl)-2,13,16,20,24-pentaoxo-14-(4-(4-(4-oxo-4-((5-sulfamoyl-1,3,4-thiadiazol-2-yl)amino)butyl)-1H-1,2,3-triazol-1-yl)butyl)-6,9-dioxa-3,12,15,19,23-pentaazaoctacosyl)-1,4,7-triazonane-1,4-diyl)diacetic acid] |  |  | 0.0967 ± 0.0033 |
| CC(CCC(=O)N[C@@H](CC(=O)N[C@@H](CC(=O)N[C@@H](CCCCn1cc(CCCC(=O)Nc2nnc(S(N)(=O)=O)s2)nn1)C(=O)NCCOCCOCCNC(=S)Nc1ccc(CC2CN(CC(=O)O)CCN(CC(=O)O)CCN2CC(=O)O)cc1)C(=O)O)C(=O)O)(c1ccc(O)cc1)c1ccc(O)cc1.[Cu] (stereo partly drawn) [[^63/65Cu]XYIMSR-06, [^63/65Cu]2,2′,2″-(2-(4-(3-((11S,15S,19S)-15,19-dicarboxy-24,24-bis(4-hydroxyphenyl)-10,13,17,21-tetraoxo-11-(4-(4-(4-oxo-4-((5-sulfamoyl-1,3,4-thiadiazol-2-yl)amino)butyl)-1H-1,2,3-triazol-1-yl)butyl)-3,6-dioxa-9,12,16,20-tetraazapentacosyl)thioureido)benzyl)-1,4,7-triazonane-1,4,7-triyl)triacetic acid] |  |  | 0.157 ± 0.0043 |
| CC(CCC(=O)NC(CC(=O)NC(CC(=O)NC(CCCCn1cc(CCCC(=O)Nc2nnc(S(N)(=O)=O)s2)nn1)C(=O)NCCOCCOCCNC(=O)CN1CCN(CC(=O)O)CCN(CC(=O)O)CCN(CC(=O)O)CC1)C(=O)O)C(=O)O)(c1ccc(O)cc1)c1ccc(O)cc1 (stereo not shown) [[^113/115In]XYIMSR-01] | 0.108 | high binding affinity |  |
| CC(CCC(=O)N[C@@H](CC(=O)N[C@@H](CC(=O)N[C@@H](CCCCn1cc(CCCC(=O)Nc2nnc(S(N)(=O)=O)s2)nn1)C(=O)NCCOCCOCCNC(=O)CN1CCN(CC(=O)O)CCN(CC(=O)O)CCN(CC(=O)O)CC1)C(=O)O)C(=O)O)(c1ccc(O)cc1)c1ccc(O)cc1.[Lu] [[^175Lu]XYIMSR-01, [^175Lu]2,2′,2″-(10-((14S,18S,22S)-18,22-dicarboxy-27,27-bis(4-hydroxyphenyl)-2,13,16,20,24-pentaoxo-14-(4-(4-(4-oxo-4-((5-sulfamoyl-1,3,4-thiadiazol-2-yl)amino)butyl)-1H-1,2,3-triazol-1-yl)butyl)-6,9-dioxa-3,12,15,19,23-pentaazaoctacosyl)-1,4,7,10-tetraazacyclododecane-1,4,7-triyl)triacetic acid] |  |  | 0.122 ± 0.0038 |
